In assay [1] the test system is Sebekia benihana IFO14309. Put plainly: Induction of D-aminoacylase, experiment 2 (seed culture, PY liquid medium, 0.10% inducer). The format is cell-based. The settings on record: 20 mM N-acetyl-D-methionine, 30° C., 10 min. As to the method: Second, a seed culture was prepared by incubating the strain in test tubes, each containing 5.0 ml of PY liquid medium for 71 hours. Then, 0.4 ml of the seed culture was inoculated with a 2-ml Komagome pipette into test tubes, each containing 8.0 ml of PY liquid medium supplemented with 0.10% DL-glutamine, 0.10% DL-histidine, 0.10% DL-isoleucine, 0.10% DL-phenylalanine, 0.10% proline, 0.10% DL-threonine, 0.10% DL-tryptophan, or 0.10% DL-valine as inducers, and cultivated for 74 hours with shaking (experiment 2).
(§1) From the culture broth obtained in experiments 1, 2, and 3, the cells were collected by centrifugation at 8000 rpm (7000×g) for 20 min with a refrigerated centrifuge (Hitachi Koki Co., Ltd.). The collected cells were washed with 50 mM Tris-HCl buffer (pH 7.5), collected again by centrifugation using the same centrifuge, then stored at -20° C.
(§2) The stored cells were suspended in 20 ml of 50 mM Tris-HCl buffer (pH 7.5) and were disrupted by sonication at 200 W for 15 min. The lysate was centrifuged at 15,000 rpm for 30 min with the above centrifuge, and the supernatant was obtained as a crude enzyme solution.
(§3) The enzymatic reaction was performed in 1.0 ml of a reaction system containing 20 mM N-acetyl-D-methionine, 50 mM Tris-HCl buffer (pH 7.5), 1 mM CoCl2, and 100 μl of the enzyme solution at 30° C. for 20 min (experiment 1), 10 min (experiment 2), and 5 min (experiment 3). The reaction was stopped by adding a TCA solution.

In assay [2] the test system is D-aminoacylase derived from Sebekia benihana IFO14309. Nature of the assay: Influences of inhibitors on the activity of the enzyme. In kind it is biochemical. The protocol: (§4) The enzymatic reaction was performed in the same manner as in (1) except that the metal salts and enzyme inhibitors listed in Tables 10 and 11 (1 mM or 10 mM) were added to the reaction mixture.

Assay [3] shares this test system. In kind it is biochemical. The protocol: as §4
For assay [4], the system named is Sebekia benihana IFO14309. Nature of the assay: Induction of D-aminoacylase, experiment 3 (seed culture, 231 liquid medium, 0.05% inducer). The format is cell-based. The settings on record: for Activity / Specific activity: experiment 3, 20 mM N-acetyl-D-methionine, 30° C., 5 min; for Induction of the enzyme (in words): used as inducers (Table 3). The protocol:
Third, a seed culture was prepared by incubating the strain in test tubes, each containing 5.0 ml of PY liquid medium for 51 hours with shaking. The seed culture (0.4 ml) was then inoculated with a 2-ml Komagome pipette into test tubes, each containing 8.0 ml of 231 liquid medium (1.0% maltose; 0.2% N.Z.Amine, Type A; 0.1% yeast extract; 0.1% meat extract; pH 7.3) supplemented with 0.05% D-phenylalanine, 0.05% D-tryptophan, 0.05% D-valine, 0.05% L-phenylalanine, 0.05% L-tryptophan, or 0.05% L-valine as inducers, and cultivated for 48 hours with shaking (experiment 3).
as §1, §2, §3

Assay [5] relates to Sebekia benihana IFO14309. Nature of the assay: Induction of D-aminoacylase, experiment 1 (PY liquid medium, 0.10% inducer). In kind it is cell-based. As to conditions: 20 mM N-acetyl-D-methionine, 30° C., 20 min. The protocol: First, Sebekia benihana IFO14309 was cultured with shaking for 74 hours in test tubes, each containing 8.0 ml of PY liquid medium (0.2% glycerol, 2.0% yeast extract, 2.0% polypeptone, pH 7.3) supplemented with 0.10% DL-leucine, 0.10% N-acetyl-DL-leucine, 0.10% DL-methionine, 0.10% N-acetyl-DL-methionine, DL-valine, or 0.10% N-acetyl-DL-valine as inducers (experiment 1).
as §1, §2, §3

Where [6] appears, read: column 1 mM, PCMB was used at 0.01 mM.
The mark [7] stands for this setting: column 10 mM, PCMB was used at 0.1 mM.

Where “and” joins values, the source holds several entries; their conditions need not be identical. Equal entries are not always repeated. Where two headings read alike, the source gives them in different places.

As for `NC(Cc1c[nH]cn1)C(=O)O` (racemic) [DL-His, DL-histidine], in assay [1], the Activity is listed as 0.0144 U/ml of broth and the Specific activity turned out to be 0.0064 U/mg.

Consider `CC[C@H](C)[C@H](N)C(=O)O` (racemic) [DL-Ile, DL-isoleucine], for which, in assay [1], the Activity is recorded as 0.214 U/ml of broth and the Specific activity was determined as 0.0799 U/mg.

Regarding `NC(Cc1c[nH]c2ccccc12)C(=O)O` (racemic) [DL-Trp, DL-tryptophan], in assay [1], the Activity was 0.312 U/ml of broth and the Specific activity is 0.119 U/mg.

`O=C(O)CI` [ICH2 COOH, iodoacetic acid]: the “Effect of inhibitors on the enzyme (in words)” value (“Effect of inhibitors” below) in assay [2] was “inhibited”.

Regarding `[Cl][Fe][Cl]` [FeCl2], in assay [3], the “Effect of metal ions on the enzyme (in words)” value (from here on “Effect of metal ions”) is recorded as “inhibited”. In addition, the D-Met in assay [3] (metal salt 1 mM) amounted to 0.24 mM; in assay [3] (metal salt 10 mM), 0.035 mM. Further, the Residual activity in assay [3] (metal salt 1 mM) was 20%; in assay [3] (metal salt 10 mM) it was 2.9%.

Take `[Cl-].[Cl-].[Zn+2]` [ZnCl2]: in assay [3], the “Effect of metal ions” value is on record as “inhibited”. Moreover, the D-Met in assay [3] (metal salt 1 mM) came out at 0.50 mM; in assay [3] (metal salt 10 mM), 0 mM. Besides, the Residual activity came to 42% in assay [3] (metal salt 1 mM) and 0% in assay [3] (metal salt 10 mM).

As for `[Cl][Cu][Cl]` [CuCl2], the “Effect of metal ions” value in assay [3] was “inhibited”. In assay [3] (metal salt 1 mM), the D-Met stood at 0.13 mM and the Residual activity worked out at 11%. Also, in assay [3] (metal salt 10 mM), the D-Met is 0 mM and the Residual activity is listed as 0%.

As for `CC(C)[C@H](N)C(=O)O` [L-Val, L-valine], in assay [4], the Activity was 0.0265 U/ml of broth and the Specific activity is 0.0161 U/mg.

As to `NC(Cc1ccccc1)C(=O)O` (racemic) [DL-Phe, DL-phenylalanine], in assay [1], the Activity was 0.190 U/ml of broth and the Specific activity was 0.0701 U/mg.

For the molecule `[F-].[Na+]` [NaF], in assay [2] (inhibitor 1 mM), the D-Met is 1.6 mM and the Residual activity was 100%. Further, in assay [2] (inhibitor 10 mM), the D-Met is listed as 1.4 mM and the Residual activity worked out at 88%.

Turning to `O=C(O)CN(CCN(CC(=O)O)CC(=O)O)CC(=O)O` [EDTA · 2Na], in assay [3], the D-Met was 1.2 mM and 1.3 mM; the Residual activity stood at 108%.

Regarding `N[C@H](Cc1ccccc1)C(=O)O` [D-Phe, D-phenylalanine], in assay [4], the Activity is recorded as 0.479 U/ml of broth, the Specific activity is recorded as 0.303 U/mg and the “Induction of the enzyme (in words)” value is “induced well”.

Regarding `CCN1C(=O)C=CC1=O` [N-ethyl-maleimide], the D-Met in assay [2] (inhibitor 1 mM) is recorded as 1.7 mM; in assay [2] (inhibitor 10 mM), 1.1 mM. The Residual activity in assay [2] (inhibitor 1 mM) turned out to be 106%; in assay [2] (inhibitor 10 mM) it was 69%.

With `[Cl-].[Cl-].[Co+2]` [CoCl2], the “Effect of metal ions” value in assay [3] is recorded as “inhibited”. Also, in assay [3] (metal salt 1 mM), the D-Met was determined as 0.65 mM and the Residual activity is reported as 54%. Besides, in assay [3] (metal salt 10 mM), the D-Met is 0.11 mM and the Residual activity was found to be 9.2%.

In the case of `[Ca+2].[Cl-].[Cl-]` [CaCl2], in assay [3] (metal salt 1 mM), the D-Met worked out at 1.3 mM and the Residual activity is recorded as 108%. In addition, in assay [3] (metal salt 10 mM), the D-Met came out at 1.1 mM and the Residual activity is given as 92%.

Take `CSCCC(NC(C)=O)C(=O)O` (racemic) [N-Ac-DL-Methionine, N-acetyl-DL-methionine]: in assay [5], the Activity is 0.0713 U/ml of broth and the Specific activity was determined as 0.0186 U/mg.

In the case of `CC(=O)NC(C(=O)O)C(C)C` (racemic) [N-Ac-DL-Valine, N-acetyl-DL-valine], in assay [5], the Activity is given as 0.114 U/ml of broth and the Specific activity came to 0.0341 U/mg.

Turning to `[Ba+2].[Cl-].[Cl-]` [BaCl2], in assay [3] (metal salt 1 mM), the D-Met stood at 1.2 mM and the Residual activity was 100%. Moreover, in assay [3] (metal salt 10 mM), the D-Met worked out at 1.1 mM and the Residual activity is given as 92%.

Take `[Cl][Ni][Cl]` [NiCl2]: the “Effect of metal ions” value in assay [3] was “inhibited”. Moreover, in assay [3] (metal salt 1 mM), the D-Met was 0.53 mM and the Residual activity amounted to 44%. Further, in assay [3] (metal salt 10 mM), the D-Met is 0.035 mM and the Residual activity stood at 2.9%.

In the case of `[Cl][Mn][Cl]` [MnCl2], in assay [3] (metal salt 1 mM), the D-Met was 1.3 mM and the Residual activity is 108%. Moreover, in assay [3] (metal salt 10 mM), the D-Met turned out to be 0.73 mM and the Residual activity is 61%.

Regarding `CC(C)CC(N)C(=O)O` (racemic) [DL-Leucine, DL-leucine], in assay [5], the Activity is listed as 0.315 U/ml of broth and the Specific activity is listed as 0.0967 U/mg.

Turning to `O=C(O)c1cc[c]([Hg][Cl])cc1` [PCMB, p-chloromercuribenzoic acid], the “Effect of inhibitors” value in assay [2] was “inhibited”. In assay [2] (setting [6]), the D-Met was 1.8 mM and the Residual activity stood at 112%. Further, in assay [2] (setting [7]), the D-Met amounted to 1.6 mM and the Residual activity worked out at 100%.

With `C[C@@H](O)[C@H](N)C(=O)O` (racemic) [DL-Thr, DL-threonine], in assay [1], the Activity is 0.0163 U/ml of broth and the Specific activity worked out at 0.00587 U/mg.

For the molecule `[Cl-].[Cl-].[Mg+2]` [MgCl2], in assay [3] (metal salt 1 mM), the D-Met is on record as 1.3 mM and the Residual activity worked out at 108%. In addition, in assay [3] (metal salt 10 mM), the D-Met is 1.2 mM and the Residual activity turned out to be 100%.

As to `O=C(O)CN(CCN(CC(=O)O)CC(=O)O)CC(=O)O` [EDTA], in assay [2], the D-Met was found to be 1.6 mM, the “Effect of inhibitors” value is listed as “inhibited” and the Residual activity is recorded as 100%.

Consider `N[C@H](Cc1c[nH]c2ccccc12)C(=O)O` [D-Trp, D-tryptophan], for which, in assay [4], the Activity was 0.913 U/ml of broth, the Specific activity is 0.537 U/mg and the “Induction of the enzyme (in words)” value is listed as “induced well”.

Consider `[Cl-].[Na+]` [NaCl], for which, in assay [3], the D-Met was 1.3 mM and 1.1 mM; the Residual activity was 108% and 92%.

Take `O=C(O)[C@@H]1CCCN1` (racemic) [DL-Pro, proline]: in assay [1], the Activity is given as 0.00867 U/ml of broth and the Specific activity is 0.00286 U/mg.

As to `CSCCC(N)C(=O)O` (racemic) [DL-Methionine, DL-methionine], in assay [5], the Activity is given as 0.177 U/ml of broth and the Specific activity amounted to 0.0475 U/mg.

Consider `CC(C)[C@@H](N)C(=O)O` [D-Val, D-valine], for which, in assay [4], the Activity is 1.27 U/ml of broth, the Specific activity turned out to be 0.780 U/mg and the “Induction of the enzyme (in words)” value is on record as “induced well”.

Consider `OC(CS)C(O)CS` (stereo not drawn) [DTT], for which, in assay [2] (inhibitor 1 mM), the D-Met came to 0.13 mM and the Residual activity is 8.1%. In addition, in assay [2] (inhibitor 10 mM), the D-Met stood at 0.055 mM and the Residual activity was 3.4%.

With `c1ccc(-c2ccccn2)nc1` [2,2'-Bipyridyl], in assay [2] (inhibitor 1 mM), the D-Met came to 1.6 mM and the Residual activity worked out at 100%. In assay [2] (inhibitor 10 mM), the D-Met was 1.4 mM and the Residual activity stood at 88%.

`[Cl-].[K+]` [KCl]: in assay [3] (metal salt 1 mM), the D-Met is reported as 1.2 mM and the Residual activity is 100%. Also, in assay [3] (metal salt 10 mM), the D-Met is recorded as 1.1 mM and the Residual activity came to 92%.

`N[C@@H](Cc1c[nH]c2ccccc12)C(=O)O` [L-Trp, L-tryptophan]: in assay [4], the Activity is 0.0243 U/ml of broth and the Specific activity is 0.0134 U/mg.

With `[Cl][Hg][Cl]` [HgCl2], the “Effect of metal ions” value in assay [3] is listed as “inhibited”. In addition, in assay [3] (metal salt 1 mM), the D-Met turned out to be 0.38 mM and the Residual activity is 32%. Also, in assay [3] (metal salt 10 mM), the D-Met was 0 mM and the Residual activity stood at 0%.

On to `N[C@@H](Cc1ccccc1)C(=O)O` [L-Phe, L-phenylalanine], for which, in assay [4], the Activity is given as 0.00973 U/ml of broth and the Specific activity is 0.0064 U/mg.

The record behind these values is US6030823A, “D-aminoacylase” (Daicel Chemical Industries, Ltd., priority 1998, dated 2000).
